This is an account of results in publication PMC4459640 (European journal of pharmaceutical sciences : official …, 2014).

One data set has as its target human SULT1A1 (Homo sapiens, UniProt P50225). Conditions: pH 7.5.
Another data set concerns the target human SULT1A2 (Homo sapiens, UniProt P50226). As to conditions: pH 7.5.
Data set [1] has as its system HepG2 human hepatoma cells.
Another data set deals with UGT2B7. Conditions: cited from earlier work.
In data set [2] the test system is opioid receptors. Conditions: ref Brown et al., 1985, Frölich et al., 2011, Zuckerman et al., 1999; cited from earlier work.
For data set [3] the following is noted: human, rabbit, and rat; ref Frölich et al., 2011, Smith et al., 1973, Skarke and Lötsch, 2002; cited from earlier work.
Data set [4] has as its system opioid receptors. As to conditions: ref Brown et al., 1985, Frölich et al., 2011, Zuckerman et al., 1999; cited from earlier work. This is another data set of the same source.
The conditions of data set [5]: ref Brown et al., 1985, Frölich et al., 2011, Zuckerman et al., 1999; cited from earlier work.
For data set [6] the following is noted: morphine metabolites in human; ref Frölich et al., 2011, Skarke and Lötsch, 2002; cited from earlier work.
Substrate in data set [7]: CN1CC[C@]23CCCC[C@H]2[C@H]1Cc1ccc(O)cc13
Type of data set: in vitro ADME, human. Conditions: other: Michaelis-Menten, pH 7.5.

Substrate in the data set “not read”: Oc1ccc2c(c1)[C@@]13CCCC[C@@]1(O)[C@@H](C2)N(CC1CCC1)CC3
Nature of the data set: not read. As to conditions: other: Michaelis-Menten, pH 7.5.

Usually Km stands for the concentration of substrate that gives half-maximal velocity. Broadly, the Vmax is the top rate of the reaction or transport when substrate is in excess.

Chain of human SULT1A2 (P50226 whole entry): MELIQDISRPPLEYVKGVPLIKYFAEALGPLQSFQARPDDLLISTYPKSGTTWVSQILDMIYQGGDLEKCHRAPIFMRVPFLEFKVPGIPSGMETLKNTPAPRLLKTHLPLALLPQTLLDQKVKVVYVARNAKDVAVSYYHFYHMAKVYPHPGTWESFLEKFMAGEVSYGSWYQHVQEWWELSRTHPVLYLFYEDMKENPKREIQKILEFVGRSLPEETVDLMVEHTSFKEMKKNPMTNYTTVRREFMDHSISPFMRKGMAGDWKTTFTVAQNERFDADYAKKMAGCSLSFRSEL
Chain of human SULT1A1 (P50225 whole entry): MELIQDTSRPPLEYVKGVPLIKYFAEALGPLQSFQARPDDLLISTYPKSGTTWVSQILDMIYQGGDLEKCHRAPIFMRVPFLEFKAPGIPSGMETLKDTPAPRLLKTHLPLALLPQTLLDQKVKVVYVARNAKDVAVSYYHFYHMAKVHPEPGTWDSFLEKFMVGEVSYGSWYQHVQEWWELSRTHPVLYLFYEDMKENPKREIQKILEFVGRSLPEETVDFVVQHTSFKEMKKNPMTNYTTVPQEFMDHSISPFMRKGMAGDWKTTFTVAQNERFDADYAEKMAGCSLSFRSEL

As to `Oc1ccc2c3c1O[C@H]1[C@H](O)CC[C@@]4(O)[C@@H](C2)N(CC2CC2)CC[C@]314` [6βNaltrexol, 6β-naltrexol], the “Specific activity, SULT1A1” value on human SULT1A1 was 0.21 ± 0.03 nmol/min/mg. For the same molecule, the “Specific activity, SULT1A2” value on human SULT1A2 is 0.08 ± 0.01 nmol/min/mg.
`Oc1ccc2c(c1)[C@@]13CCCC[C@@]1(O)[C@@H](C2)N(CC1CCC1)CC3` [Butorphanol, butorphanol]: the “Efficiency of sulfation by HepG2 cells relative to the other three opioid drugs” value in [1] is listed as “more efficiently”.
Still for that read-out and setting: the result for `C=CCN1CC[C@]23c4c5ccc(O)c4O[C@H]2[C@@H](O)C=C[C@H]3[C@H]1C5` [Nalorphine, nalorphine] reads “more efficiently”.
For the molecule `CN1CC[C@]23c4c5ccc(O)c4O[C@H]2C(=O)CC[C@@]3(O)[C@H]1C5` [Oxymorphone, oxymorphone], in data set [1], the “Efficiency of sulfation by HepG2 cells relative to the other three opioid drugs” value was “more efficiently”. In addition, the Km in the data set on UGT2B7 was 540 to 1360 µM.
Turning to `CN1CC[C@]23c4c5ccc(OS(=O)(=O)O)c4O[C@H]2[C@@H](O)C=C[C@H]3[C@H]1C5` [morphine-3-sulfate, morphine-3-O-sulfate], in the data set with opioid receptors [2], the “Affinity toward opioid receptors” value is on record as “low affinity”. Further, in data set [3], the “Sulfate metabolite as share of the metabolites from urine” value was ~ 2%. The “Capability to activate the opioid receptors (ligand activity)” value in the data set with opioid receptors [4] is given as “low capability to activate the receptors”.
As to `CN1CC[C@]23c4c5ccc(O)c4O[C@H]2[C@@H](OS(=O)(=O)O)C=C[C@H]3[C@H]1C5` [morphine-6-sulfate], in the data set on opioid receptors [2], the “Affinity toward opioid receptors” value was “comparable to those of morphine”. Besides, in data set [5], the “Analgesic effect compared with morphine” value is listed as “greater analgesic effect than does morphine”. Further, the “Capability to activate the opioid receptors (ligand activity)” value in the data set with opioid receptors [4] is given as “comparable to those of morphine”.
For `CN1CC[C@]23c4c5ccc(O)c4O[C@H]2[C@@H](O[C@@H]2O[C@H](C(=O)O)[C@@H](O)[C@H](O)[C@H]2O)C=C[C@H]3[C@H]1C5` [morphine-glucuronide], the Share of metabolite in data set [6] is given as 60–70 % of metabolite.

B1: human SULT2A1 (Homo sapiens) (protein)
chain: MSDDFLWFEGIAFPTMGFRSETLRKVRDEFVIRDEDVIILTYPKSGTNWLAEILCLMHSKGDAKWIQSVPIWERSPWVESEIGYTALSETESPRLFSSHLPIQLFPKSFFSSKAKVIYLMRNPRDVLVSGYFFWKNMKFIKKPKSWEEYFEWFCQGTVLYGSWFDHIHGWMPMREEKNFLLLSYEELKQDTGRTIEKICQFLGKTLEPEELNLILKNSSFQSMKENKMSNYSLLSVDYVVDKAQLLRKGVSGDWKNHFTVAQAEDFDKLFQEKMADLPRELFPWE
As to B1, in data set [7], the Km was found to be 599.0 ± 60.7 µM and the Vmax came out at 0.00032 µmol/min/mg. Moreover, in “not read”, the Michaelis-Menten constant (Km) came to 38.95 ± 1.21 µM and the maximum rate (Vmax) came out at 0.00104 µmol/min/mg.
